In PMC8348110, “A Novel Peptide Derived from the Transmembrane Domain of Romo1 Is a Promising Candidate for Sepsis Treatment and Multidrug-Resistant Bacteria” (International Journal of Molecular Sciences, 2021):
Converted amounts (≈) assume the structure as drawn. Residues, ends and D or L forms follow the SMILES beside them.

Assays:
[1] = test system: Methicillin-resistant S. aureus (MRSA) ATCC 33591; type: cell-based, Staphylococcus aureus
Outline: (§1)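 MBC = lowest peptide concentration yielding no colonies on TS agar after overnight growth at 37 °C. Before plating, cells (5 × 10^5 CFU/mL, mid-log) were incubated 1 h with peptide, 2-fold series from 64 μg/mL, in 10 mM Na phosphate pH 7.4 plus 1% TS broth.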

[2] = test system: Vancomycin-resistant S. aureus NCCP 15872; type: cell-based, Staphylococcus aureus; details: Vancomycin-resistant NCCP 15872, 1 h
Outline: as §1

BALB/c mice = experiment: In vivo toxicity, single intravenous dose; design: species or system mouse; details: 100 mg/kg single intravenous dose, tracked for 15 days, compared with PBS-treated mice
Description: We compared the toxicity of AMPR-22 in mammalian cells with that of AMPR-11 and AMPR-21. […] To investigate the toxicity of AMPR-22 to white blood cells, we isolated fresh peripheral blood mononuclear cells (PBMCs) from humans and mice. […] To check for in vivo toxicity before administering AMPR-22 to mice in a murine model of sepsis, we intravenously injected 100 mg/kg single dose of AMPR-22 (10-fold higher than the working dose) into BALB/c mice and tracked them for 15 days.
Figure 3 The cytotoxicity of AMPR-22. (A) The cell toxicity of the AMPR-11 analog peptides was measured using the MTT assay in HeLa and HEK293 cells. Daptomycin and magainin 2 were also tested. (B) A hemolysis assay was performed in mouse and human blood. The percentage of hemolyzed erythrocytes was measured using a spectrophotometer. Peptides were serially diluted and incubated with cells for an hour. (C) The toxicity of leukocytes was measured using a flow cytometric assay with LIVE/DEAD fixable dead cell™ stain dye and freshly isolated mouse and human PBMCs. […] Data represent the means ± SD of more than three independent experiments.

mouse PBMCs = experiment: White blood cell toxicity assay (LIVE/DEAD stain, flow cytometry); type: cell-based; details: freshly isolated PBMCs, 0 to 256 μg/mL for 30 min
Description: (§2) For the hemolytic assay, mouse and human whole blood was diluted with PBS (pH 7.4) and centrifuged for 10 min at 500× g. After removing the supernatant and rinsing the pellet three times with PBS, we resuspended the erythrocytes in PBS at 2% volume. The blood solution was added to the solution of peptides with two-fold serial dilution on a 96-well plate. After incubation for an hour at 37 °C, the plate was centrifuged at 2500× g for 10 min, and the absorbance of the supernatant was measured at 550 nm. The PBS-treated sample was the negative control, and the 0.1% Triton X-100–treated sample was the positive control. To measure white blood cell toxicity, mouse and human PBMCs were freshly isolated as previously described, and 70% ethanol (positive control) or AMPR-22 was administered using two-fold diluted concentrations (0 to 256 μg/mL) for 30 min. To measure cell death, a LIVE/DEAD® fixable green dead cell stain kit (Thermo Fisher Scientific, Waltham, MS, USA) was used following the manufacturer′s instructions, and flow cytometry was performed using a FACS Canto II (BD Biosciences, CA, USA). The toxicity of AMPR-22 was compared with negative (PBS-treated) and positive controls, and the data were analyzed using FlowJo software (Tree Star, OR, USA).

human PBMCs = experiment: as above; type: cell-based; details: freshly isolated PBMCs, 0 to 256 μg/mL for 30 min
Description: as §2

P. aeruginosa = details: mouse, iv, 40 mg/kg
Description: Figure 4 The antibacterial activity of AMPR-22 in various physiological conditions. (A,B) Effects of AMPR-22 activity in mouse plasma and human serum. AMPR-22 was incubated with blood components for the indicated times (0, 15, 30, 60, 90, 120, 150, and 180 min) and then with P. aeruginosa or S. aureus for an hour. (C,D) Effects of AMPR-22 activity in low-density lipoprotein (LDL), high-density lipoprotein (HDL), and bovine serum albumin. AMPR-22 was incubated with blood components for the indicated times (0, 30, 60, 120, and 180 min) and then with P. aeruginosa or S. aureus for an hour. (E) Effects of AMPR-22 activity in whole blood. AMPR-22 was incubated with mouse and human whole blood for the indicated times (0, 30, 60, 90, 120, and 180 min) and then with P. aeruginosa for an hour. (F,G) The antibacterial activity of AMPR-22 in vivo. […] (F) The relative CFU in blood samples was calculated using the following formula: CFU at indicated time ÷ CFU at 0 min × 100 (%). […] The antibacterial activity was measured using a colony-forming unit assay. […]
We used the CFU counting method to measure antibacterial activity, with all bacteria cultured to the mid-log phase in an appropriate broth medium. Bacterial CFUs were counted after overnight culture at 37 °C on TS or LB agar plates. The MBC value and antibacterial activity in blood components were determined as previously described. […]

CC[C@H](C)[C@H](NC(=O)CNC(=O)CNC(=O)[C@@H](NC(=O)[C@H](C)NC(=O)[C@H](CCSC)NC(=O)[C@H](Cc1ccccc1)NC(=O)[C@@H](NC(=O)CNC(=O)[C@H](Cc1ccccc1)NC(=O)[C@H](CCCCN)NC(=O)CNC(=O)CNC(=O)[C@H](CCCCN)NC(=O)[C@H](CCCCN)NC(=O)[C@H](CCSC)NC(=O)[C@H](CCSC)NC(=O)[C@H](CCCCN)NC(=O)[C@@H](N)CCCCN)[C@@H](C)O)[C@@H](C)CC)C(=O)N[C@@H](CCCNC(=N)N)C(=O)O [AMPR-22] (H-KKMMKKGGKFGTFMAIGGIR-OH)
MBC Value, MRSA ([1]; ATCC 33591, 1 h): 2 mg/L (≈ 0.915 µM)
MBC Value, Methicillin-resistant S. aureus ([1]; Table 2, ATCC 33591, modified MBC): 2 mg/L (≈ 0.915 µM)
MBC Value, Vancomycin-resistant S. aureus [2]: 4 mg/L (≈ 1.83 µM)
In vivo toxicity (weight loss or death) (BALB/c mice): No significant changes
Cytotoxic activity against mouse leukocytes (mouse PBMCs): negligible cytotoxic activity
Cytotoxic activity against human leukocytes (human PBMCs): negligible cytotoxic activity
Antibacterial activity maintained 37 min after peptide injection (P. aeruginosa; in vivo): more than 50%
Functional half-life in vivo (P. aeruginosa): around 37 min
